Laboratory results published in patent publication US20250002471A1 (Gilead Sciences, Inc., priority 2020, published 2025).
Like-named read-outs stand apart in the source and are kept apart here.

How the values were obtained:
TLR9 = biological target: T1, TLR9 (Homo sapiens, UniProt Q9NR96); experiment: Human PBMC cell-based assay, TLR9 agonist ODN-2216 stimulation, cytokine (IL-6 and IFNα) readout; details: human PBMCs, ODN-2216 3 μM, 6 hours; Table 26; read-out: TLR-9 EC50
T1 construct: lymphocytes, monocytes and dendritic cells that express TLR7, TLR8 and TLR9; endogenous in cells; host or cells: human PBMCs from healthy donors
T1 sequence (Q9NR96 26-1032): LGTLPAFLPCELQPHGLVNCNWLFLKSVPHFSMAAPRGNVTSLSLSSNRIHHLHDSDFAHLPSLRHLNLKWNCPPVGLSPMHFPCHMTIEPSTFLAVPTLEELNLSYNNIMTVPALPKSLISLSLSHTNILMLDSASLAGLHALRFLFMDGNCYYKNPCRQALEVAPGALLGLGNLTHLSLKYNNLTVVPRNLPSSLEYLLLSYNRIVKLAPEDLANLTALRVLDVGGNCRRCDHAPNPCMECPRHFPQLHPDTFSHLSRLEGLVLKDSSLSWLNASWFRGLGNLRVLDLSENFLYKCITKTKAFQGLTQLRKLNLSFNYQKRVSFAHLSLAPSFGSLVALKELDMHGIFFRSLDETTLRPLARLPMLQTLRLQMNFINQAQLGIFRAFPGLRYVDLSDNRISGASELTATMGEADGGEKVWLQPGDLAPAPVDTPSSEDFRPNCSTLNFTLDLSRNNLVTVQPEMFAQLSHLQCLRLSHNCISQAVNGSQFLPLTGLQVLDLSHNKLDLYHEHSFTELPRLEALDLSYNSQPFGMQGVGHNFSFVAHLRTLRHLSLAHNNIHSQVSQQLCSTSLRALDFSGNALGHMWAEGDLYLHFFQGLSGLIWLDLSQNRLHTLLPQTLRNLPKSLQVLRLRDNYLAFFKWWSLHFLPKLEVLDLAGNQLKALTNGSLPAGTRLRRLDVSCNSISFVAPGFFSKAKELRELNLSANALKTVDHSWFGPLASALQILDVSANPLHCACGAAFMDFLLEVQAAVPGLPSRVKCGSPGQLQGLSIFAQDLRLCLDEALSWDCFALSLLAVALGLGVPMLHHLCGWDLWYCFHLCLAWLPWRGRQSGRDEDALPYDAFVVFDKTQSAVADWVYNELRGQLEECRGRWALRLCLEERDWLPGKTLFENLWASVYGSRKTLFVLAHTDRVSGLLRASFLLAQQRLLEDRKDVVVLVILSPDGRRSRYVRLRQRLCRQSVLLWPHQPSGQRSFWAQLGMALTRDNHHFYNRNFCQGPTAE
Summary of the method: (§1)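 Readout is IL-6 and IFNα in supernatants, quantified by electrochemiluminescence, with EC50 from a sigmoidal fit of cytokine versus concentration. Healthy-donor human PBMCs, 100,000 per well, got antagonist for 1 h at 37 °C, then 6 h agonist exposure: TLR7 via GS-986 at 400 nM final, TLR9 via ODN-2216 at 3 μM final.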

TLR7 = biological target: T2, TLR7 (Homo sapiens, UniProt Q9NYK1); experiment: Human PBMC cell-based assay, TLR7 agonist GS-986 stimulation, cytokine (IL-6 and IFNα) readout; details: human PBMCs, read-out: TLR-7 EC50
T2 construct: lymphocytes, monocytes and dendritic cells that express TLR7, TLR8 and TLR9; endogenous in cells; host or cells: human PBMCs from healthy donors
T2 sequence (Q9NYK1 27-1049): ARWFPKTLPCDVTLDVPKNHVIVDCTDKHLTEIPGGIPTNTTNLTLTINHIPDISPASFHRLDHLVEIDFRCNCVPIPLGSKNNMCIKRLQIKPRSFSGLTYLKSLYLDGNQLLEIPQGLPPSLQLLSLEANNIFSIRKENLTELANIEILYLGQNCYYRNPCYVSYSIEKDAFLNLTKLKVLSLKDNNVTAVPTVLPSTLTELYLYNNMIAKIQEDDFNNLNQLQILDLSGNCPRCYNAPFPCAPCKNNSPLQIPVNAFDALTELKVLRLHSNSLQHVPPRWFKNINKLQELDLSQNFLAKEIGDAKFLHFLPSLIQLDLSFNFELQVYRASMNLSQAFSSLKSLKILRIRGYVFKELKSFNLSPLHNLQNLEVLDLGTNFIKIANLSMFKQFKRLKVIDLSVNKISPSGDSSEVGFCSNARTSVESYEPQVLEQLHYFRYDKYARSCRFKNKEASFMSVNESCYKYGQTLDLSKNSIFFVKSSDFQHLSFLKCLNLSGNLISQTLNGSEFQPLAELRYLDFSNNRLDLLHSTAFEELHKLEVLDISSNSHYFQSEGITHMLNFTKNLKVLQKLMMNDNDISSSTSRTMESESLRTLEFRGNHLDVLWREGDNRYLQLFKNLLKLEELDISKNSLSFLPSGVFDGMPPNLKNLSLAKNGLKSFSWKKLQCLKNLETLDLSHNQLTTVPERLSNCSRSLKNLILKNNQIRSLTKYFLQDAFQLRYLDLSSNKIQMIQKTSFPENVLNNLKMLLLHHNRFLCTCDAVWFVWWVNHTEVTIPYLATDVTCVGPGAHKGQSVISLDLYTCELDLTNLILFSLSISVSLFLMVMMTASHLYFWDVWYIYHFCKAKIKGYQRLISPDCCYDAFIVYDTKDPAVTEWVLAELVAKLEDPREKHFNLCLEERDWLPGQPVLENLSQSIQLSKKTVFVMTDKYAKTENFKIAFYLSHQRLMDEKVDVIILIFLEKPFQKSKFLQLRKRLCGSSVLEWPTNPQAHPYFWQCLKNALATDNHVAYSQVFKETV
Summary of the method: as §1

[1] = GS-986 400 nM, 6 hours, Table 26

**Q.** For `Cc1c(-c2cc(C)c3ncnn3c2)[nH]c2cc(-c3ccc(N4CCNCC4)nc3)ccc12` [Example 71], which EC50 (TLR9) is on record?
**A.** 630 nM

**Q.** And the EC50 (TLR7; [1])?
**A.** 1.2 nM

**Q.** `Cc1cc(-c2[nH]c3cc(C4CCNCC4)ccc3c2C)cc(C)n1` [Example 48, 2-(2,6-dimethylpyridin-4-yl)-3-methyl-6-(piperidin-4-yl)-1H-indole] was tested. Which EC50 (TLR9) did it give?
**A.** 136 nM

**Q.** And the EC50 (TLR7; [1])?
**A.** 692 nM

**Q.** With `Cc1cc(-c2[nH]c3cc(C4CCCNC4)ccc3c2C)cc(C)n1` (stereo not shown) [Example 53] as the compound, how does the EC50 (TLR9) read?
**A.** 181 nM

**Q.** And the EC50 (TLR7; [1])?
**A.** > 1000 nM

**Q.** And the EC50 (TLR7; Table 27 comparison)?
**A.** > 1000 nM

**Q.** `CCc1c(-c2cc(OC)c3ncnn3c2)[nH]c2cc(-c3ccc(N4CCNCC4)nc3)ccc12` [Example 169] was tested. Which EC50 (TLR9) did it give?
**A.** 502 nM

**Q.** And the EC50 (TLR7; [1])?
**A.** 0.13 nM

**Q.** For `Cc1cc(-c2[nH]c3cc(C4CCNCC4)ccc3c2C(C)C)cn2ncnc12` [Example 55], which EC50 (TLR9) is on record?
**A.** 3980 nM

**Q.** And the EC50 (TLR7; [1])?
**A.** 4.8 nM

**Q.** Which EC50 (TLR9) does the source give for `CCc1c(-c2cc(C)c3ncnn3c2)[nH]c2cc(-c3ccc(N4CCNCC4)nc3)ccc12` [Example 167, 6-(3-ethyl-6-(6-(piperazin-1-yl)pyridin-3-yl)-1H-indol-2-yl)-8-methyl-[1,2,4]triazolo[1,5-a]pyridine] here?
**A.** 393 nM

**Q.** What about the EC50 (TLR7; [1]) of the same compound?
**A.** 0.17 nM

**Q.** For `Cc1cc(-c2[nH]c3cc(-c4ccc(N5CCN(CCO)CC5)nc4)ccc3c2C)cc(C)n1` [Example 37, 2-(4-(5-(2-(2,6-dimethylpyridin-4-yl)-3-methyl-1H-indol-6-yl)pyridin-2-yl)piperazin-1-yl)ethan-1-ol], which EC50 (TLR9) is on record?
**A.** 37.5 nM

**Q.** And the EC50 (TLR7; [1])?
**A.** 17.3 nM

**Q.** How did the EC50 (TLR9) turn out when `Cc1cc(-c2[nH]c3cc(-c4ccc(N5CCNCC5)nc4)ccc3c2C)cc(C)n1` [Example 1, 2-(2,6-dimethylpyridin-4-yl)-3-methyl-6-(6-(piperazin-1-yl)pyridin-3-yl)-1H-indole] was run?
**A.** 51.9 nM

**Q.** And the EC50 (TLR7; [1])?
**A.** 18.1 nM

**Q.** What does the source list for `Cc1cc(-c2[nH]c3cc(-c4ccc(N5CCNCC5)nc4)ccc3c2C2CC2)cn(C)c1=O` [Example 165]?
**A.** EC50 (TLR9): 186 nM; EC50 (TLR7; [1]): 0.33 nM
